15 compounds from ChEMBL document CHEMBL3045004, “Design, synthesis and in vitro antibacterial and antifungal activities of some novel spiro[azetidine-2,3-indole]-2,4(1H)-dione” (2011) can be followed below.

Values after ≈ are worked out from the molar mass of the structure shown. Active and inactive are the calls of the source. The rule behind the calls is not given here.

One test concerns Staphylococcus aureus. In words: Antibacterial activity against Staphylococcus aureus MTCC-96 after 24 hr by disk-diffusion method. The class given is functional.
A further test concerns Pseudomonas aeruginosa. In words: Antibacterial activity against Pseudomonas aeruginosa MTCC-647 after 24 hr by disk-diffusion method. The class given is functional.
In the next test the test system is Escherichia coli. In words: Antibacterial activity against Escherichia coli MTCC-521 after 24 hr by disk diffusion method. It counts as functional.
Test [1] relates to Candida albicans. The experiment in a line: Antifungal activity against Candida albicans MTCC-183 after 3 to 4 days by serial plate dilution method. It counts as functional. To be noted: for MIC: Candida albicans, MTCC-183.
Test [2] has as its system Aspergillus niger. The experiment in a line: Antifungal activity against Aspergillus niger MTCC-343 after 3 to 4 days by serial plate dilution method. To be noted: for MIC: Aspergillus niger, MTCC-343. The class given is functional.
Test [3] relates to Aspergillus niger. The experiment in a line: Antifungal activity against Aspergillus niger MTCC-343 at >100 ug/ml after 3 to 4 days by serial plate dilution method. It counts as functional, organism-based.
The subject of test [4] is Candida albicans. The experiment in a line: Antifungal activity against Candida albicans MTCC-183 at >100 ug/ml after 3 to 4 days by serial plate dilution method. The class given is functional, organism-based.
[5] abbreviates: Staphylococcus aureus, MTCC-96, 24 h.
The mark [6] stands for this setting: Pseudomonas aeruginosa, MTCC-647, 24 h.
Setting [7] is: Escherichia coli, MTCC-521, 24 h.

`CN[C@@H]1[C@H](O[C@H]2[C@H](O[C@H]3[C@H](O)[C@@H](O)[C@H](N=C(N)N)[C@@H](O)[C@@H]3N=C(N)N)O[C@@H](C)[C@]2(O)C=O)O[C@@H](CO)[C@H](O)[C@H]1O` [STREPTOMYCIN]: the “diameter of the inhibition zone (DIZ)” value came out at 31 mm in the test on Staphylococcus aureus, 31 mm in the test on Pseudomonas aeruginosa and 26 mm in the test with Escherichia coli. Also, the MIC against Staphylococcus aureus (setting [5]), against Pseudomonas aeruginosa (setting [6]) and against Escherichia coli (setting [7]) was 6.25 µg/mL (≈ 10.7 µM) in each case.
With `CCC(C)n1ncn(-c2ccc(N3CCN(c4ccc(OCC5COC(Cn6cncn6)(c6ccc(Cl)cc6Cl)O5)cc4)CC3)cc2)c1=O` (stereo unspecified) [ITRACONAZOLE], in the test on Candida albicans [1], the “inhibition zone (IZ)” value turned out to be 27 mm and it took 6.25 µg/mL (≈ 8.86 µM) to inhibit growth (MIC). Further, in the test with Aspergillus niger [2], the “inhibition zone (IZ)” value is given as 25 mm and the MIC is 6.25 µg/mL (≈ 8.86 µM).
Consider `Cc1ccc(N2C(=O)C(Cl)C23C(=O)Nc2ccccc23)cc1` (stereo unspecified), for which the “diameter of the inhibition zone (DIZ)” value in the test on Staphylococcus aureus is 19 mm; in the test with Pseudomonas aeruginosa, 17 mm; in the test with Escherichia coli, 20 mm. The MIC with Staphylococcus aureus (setting [5]) is 25 µg/mL (≈ 79.9 µM); in the test on Candida albicans [1], 12.5 µg/mL (≈ 40 µM); against Aspergillus niger [2], 6.25 µg/mL (≈ 20 µM); against Pseudomonas aeruginosa (setting [6]) it was 25 µg/mL (≈ 79.9 µM); in the test with Escherichia coli (setting [7]) it was 25 µg/mL (≈ 79.9 µM). The “inhibition zone (IZ)” value in the test on Candida albicans [1] is given as 16 mm; with Aspergillus niger [2], 22 mm.
As for `Cc1ccc(N2C(=O)C(Cl)C23C(=O)Nc2c(Br)cc(Br)cc23)cc1` (stereo unspecified), the “diameter of the inhibition zone (DIZ)” value is given as 24 mm with Staphylococcus aureus, 26 mm in the test with Pseudomonas aeruginosa and 22 mm with Escherichia coli. Also, the MIC in the test with Staphylococcus aureus (setting [5]) is 6.25 µg/mL (≈ 13.3 µM); against Candida albicans [1], 12.5 µg/mL (≈ 26.6 µM); with Pseudomonas aeruginosa (setting [6]), 6.25 µg/mL (≈ 13.3 µM); against Escherichia coli (setting [7]), 12.5 µg/mL (≈ 26.6 µM). Besides, in the test on Aspergillus niger [3], the outcome was inactive. Also, in the test with Candida albicans [1], the “inhibition zone (IZ)” value came to 16 mm.
For `O=C1C(Cl)C2(C(=O)Nc3ccccc32)N1c1ccc([N+](=O)[O-])cc1` (stereo unspecified), the “diameter of the inhibition zone (DIZ)” value amounted to 19 mm in the test with Staphylococcus aureus, 17 mm in the test with Pseudomonas aeruginosa and 20 mm with Escherichia coli. Moreover, the minimal inhibitory concentration (MIC) against Staphylococcus aureus (setting [5]) is 25 µg/mL (≈ 72.7 µM); against Candida albicans [1], 6.25 µg/mL (≈ 18.2 µM); in the test with Aspergillus niger [2] it was 6.25 µg/mL (≈ 18.2 µM); against Pseudomonas aeruginosa (setting [6]), 25 µg/mL (≈ 72.7 µM); in the test on Escherichia coli (setting [7]) it was 25 µg/mL (≈ 72.7 µM). For the same compound, the “inhibition zone (IZ)” value in the test with Candida albicans [1] was determined as 25 mm; with Aspergillus niger [2], 24 mm.
With `Cc1ccccc1N1C(=O)C(Cl)C12C(=O)Nc1c(Br)cc(Br)cc12` (stereo unspecified), the “diameter of the inhibition zone (DIZ)” value in the test with Staphylococcus aureus is reported as 23 mm; in the test on Pseudomonas aeruginosa, 24 mm; in the test on Escherichia coli, 23 mm. Further, the MIC in the test on Staphylococcus aureus (setting [5]) came out at 6.25 µg/mL (≈ 13.3 µM); against Candida albicans [1], 6.25 µg/mL (≈ 13.3 µM); against Aspergillus niger [2], 12.5 µg/mL (≈ 26.6 µM); with Pseudomonas aeruginosa (setting [6]), 12.5 µg/mL (≈ 26.6 µM); in the test on Escherichia coli (setting [7]), 6.25 µg/mL (≈ 13.3 µM). Further, the “inhibition zone (IZ)” value with Candida albicans [1] came out at 19 mm; with Aspergillus niger [2], 17 mm.
As to `O=C1C(Cl)C2(C(=O)Nc3c(Br)cc(Br)cc32)N1c1ccc([N+](=O)[O-])cc1` (stereo unspecified), the “diameter of the inhibition zone (DIZ)” value with Staphylococcus aureus is 28 mm; in the test with Pseudomonas aeruginosa it was 28 mm; in the test with Escherichia coli, 24 mm. Further, the MIC in the test with Staphylococcus aureus (setting [5]), in the test with Candida albicans [1], against Aspergillus niger [2], in the test with Pseudomonas aeruginosa (setting [6]) and in the test on Escherichia coli (setting [7]) was 6.25 µg/mL (≈ 12.5 µM) each time. Further, the “inhibition zone (IZ)” value in the test with Candida albicans [1] came to 26 mm; with Aspergillus niger [2] it was 23 mm.
Take `CC1(C)S[C@@H]2[C@H](NC(=O)[C@H](N)c3ccc(O)cc3)C(=O)N2[C@H]1C(=O)O` [AMOXICILLIN]: the “diameter of the inhibition zone (DIZ)” value in the test with Staphylococcus aureus amounted to 29 mm; with Pseudomonas aeruginosa, 30 mm; in the test with Escherichia coli, 25 mm. Besides, the MIC against Staphylococcus aureus (setting [5]), with Pseudomonas aeruginosa (setting [6]) and against Escherichia coli (setting [7]) was 6.25 µg/mL (≈ 17.1 µM) throughout.
With GENTAMICIN, the MIC in the test with Staphylococcus aureus, in the test with Pseudomonas aeruginosa and against Escherichia coli was 6.25 µg/mL each time.
Regarding `Cc1ccccc1N1C(=O)C(Cl)C12C(=O)Nc1ccccc12` (stereo unspecified), the “diameter of the inhibition zone (DIZ)” value in the test on Staphylococcus aureus is 22 mm; in the test on Pseudomonas aeruginosa, 17 mm; in the test on Escherichia coli it was 19 mm. Also, the minimal inhibitory concentration (MIC) against Staphylococcus aureus (setting [5]) was 12.5 µg/mL (≈ 40 µM); with Candida albicans [1], 25 µg/mL (≈ 79.9 µM); with Aspergillus niger [2], 6.25 µg/mL (≈ 20 µM); against Pseudomonas aeruginosa (setting [6]) it was 25 µg/mL (≈ 79.9 µM); in the test with Escherichia coli (setting [7]), 25 µg/mL (≈ 79.9 µM). In addition, the “inhibition zone (IZ)” value in the test with Candida albicans [1] worked out at 11 mm; with Aspergillus niger [2], 24 mm.
With `O=C1C(Cl)C2(C(=O)Nc3ccccc32)N1c1ccccc1` (stereo unspecified), the “diameter of the inhibition zone (DIZ)” value in the test with Staphylococcus aureus was 21 mm; in the test on Pseudomonas aeruginosa it was 18 mm; in the test on Escherichia coli, 19 mm. The MIC in the test with Staphylococcus aureus (setting [5]) stood at 12.5 µg/mL (≈ 41.8 µM); in the test on Candida albicans [1], 6.25 µg/mL (≈ 20.9 µM); in the test on Aspergillus niger [2], 12.5 µg/mL (≈ 41.8 µM); in the test with Pseudomonas aeruginosa (setting [6]), 25 µg/mL (≈ 83.7 µM); in the test on Escherichia coli (setting [7]) it was 25 µg/mL (≈ 83.7 µM). In addition, the results for the “inhibition zone (IZ)” value in the test with Candida albicans [1] and in the test on Aspergillus niger [2] were 23 mm and 22 mm, respectively.
On to `O=C1C(Cl)C2(C(=O)Nc3c(Br)cc(Br)cc32)N1c1ccccc1` (stereo unspecified), for which the figures for the “diameter of the inhibition zone (DIZ)” value in the test with Staphylococcus aureus, with Pseudomonas aeruginosa and in the test on Escherichia coli were 24 mm, 26 mm and 21 mm, respectively. Further, the MIC is 6.25 µg/mL (≈ 13.7 µM) in the test with Staphylococcus aureus (setting [5]); 12.5 µg/mL (≈ 27.4 µM) against Candida albicans [1]; 25 µg/mL (≈ 54.8 µM) in the test on Aspergillus niger [2]; 12.5 µg/mL (≈ 27.4 µM) against Pseudomonas aeruginosa (setting [6]); 12.5 µg/mL (≈ 27.4 µM) in the test on Escherichia coli (setting [7]). For the same compound, the “inhibition zone (IZ)” value in the test on Candida albicans [1] was 17 mm; in the test on Aspergillus niger [2] it was 14 mm.
`O=C1C(Cl)C2(C(=O)Nc3c(Br)cc(Br)cc32)N1c1ccccc1[N+](=O)[O-]` (stereo unspecified): the “diameter of the inhibition zone (DIZ)” value was found to be 27 mm in the test on Staphylococcus aureus, 27 mm with Pseudomonas aeruginosa and 21 mm with Escherichia coli. For the same compound, the MIC against Staphylococcus aureus (setting [5]) worked out at 6.25 µg/mL (≈ 12.5 µM); against Candida albicans [1], 6.25 µg/mL (≈ 12.5 µM); against Aspergillus niger [2], 25 µg/mL (≈ 49.8 µM); with Pseudomonas aeruginosa (setting [6]) it was 6.25 µg/mL (≈ 12.5 µM); in the test on Escherichia coli (setting [7]) it was 6.25 µg/mL (≈ 12.5 µM). For the same compound, the “inhibition zone (IZ)” value with Candida albicans [1] is listed as 19 mm; with Aspergillus niger [2] it was 14 mm.
For the compound `OC(Cn1cncn1)(Cn1cncn1)c1ccc(F)cc1F` [FLUCONAZOLE], the “inhibition zone (IZ)” value amounted to 27 mm in the test on Candida albicans [1] and 26 mm in the test with Aspergillus niger [2]. Besides, the MIC against Candida albicans [1] and against Aspergillus niger [2] was 6.25 µg/mL (≈ 20.4 µM) each time.
Turning to `O=C1C(Cl)C2(C(=O)Nc3ccccc32)N1c1ccccc1[N+](=O)[O-]` (stereo unspecified), the “diameter of the inhibition zone (DIZ)” value worked out at 17 mm in the test with Staphylococcus aureus, 19 mm with Pseudomonas aeruginosa and 21 mm in the test on Escherichia coli. The MIC against Staphylococcus aureus (setting [5]) is 12.5 µg/mL (≈ 36.4 µM); with Aspergillus niger [2], 12.5 µg/mL (≈ 36.4 µM); in the test with Pseudomonas aeruginosa (setting [6]), 25 µg/mL (≈ 72.7 µM); in the test with Escherichia coli (setting [7]) it was 12.5 µg/mL (≈ 36.4 µM). In addition, the “inhibition zone (IZ)” value in the test with Aspergillus niger [2] is 17 mm. The result with Candida albicans [4] was inactive.
